Measurements published in the supplement of paper PMC10307832.

Experiments:
Test in all cases: relative viability (nuclei count vs DMSO), 5 days (fraction); higher = more cells survive
[1] = tested on: NCI-H2342
In short: (§1)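 Relative viability is defined as nuclei in treated wells over nuclei in vehicle wells. Duplicate plates were run and medians reported. Lung cancer cell lines in 1536-well plates were dosed by pin tool one day after seeding, with one drug or with a fixed anchor-drug dose plus five library-drug doses (not always all listed) in √10 steps, and nuclei were counted after 5 days.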

[2] = tested on: NCI-H1975
In short: as §1

[3] = tested on: NCI-H1650
In short: as §1

[4] = tested on: BEN
In short: as §1

[5] = tested on: NCI-H1651
In short: as §1

[6] = tested on: CAL-12T
In short: as §1

[7] = tested on: LCLC-103H
In short: as §1

[8] = tested on: NCI-H1563
In short: as §1

[9] = tested on: NCI-H2085
In short: as §1

[10] = tested on: NCI-H1355
In short: as §1

[11] = tested on: LOU-NH91
In short: as §1

[12] = tested on: NCI-H838
In short: as §1

COc1cc(N2CCC(C(N)=O)CC2)ccc1Nc1nc(N)c(Cl)c(Nc2ccccc2S(=O)(=O)C(C)C)n1 [HG-5-88-01] + N=C(N)NC(=N)NCCc1ccccc1 [Phenformin] (partner 250 µM)
relative viability ([1]; first compound 0.04 µM): 0.464 | relative viability ([1]; first compound 0.1265 µM): 0.538 | relative viability ([1]; first compound 0.4 µM): 0.614 | relative viability ([1]; first compound 1.265 µM): 0.506 | relative viability ([1]; first compound 4 µM): 0.6 | relative viability ([2]; first compound 0.04 µM): 0.437 | relative viability ([2]; first compound 0.1265 µM): 0.416 | relative viability ([2]; first compound 0.4 µM): 0.354 | relative viability ([2]; first compound 1.265 µM): 0.365 | relative viability ([2]; first compound 4 µM): 0.188 | relative viability ([3]; first compound 0.04 µM): 0.452 | relative viability ([3]; first compound 0.1265 µM): 0.386 | relative viability ([3]; first compound 0.4 µM): 0.254 | relative viability ([3]; first compound 1.265 µM): 0.236 | relative viability ([3]; first compound 4 µM): 0.259 | relative viability ([4]; first compound 0.04 µM): 0.304 | relative viability ([4]; first compound 0.1265 µM): 0.271 | relative viability ([4]; first compound 0.4 µM): 0.274 | relative viability ([4]; first compound 1.265 µM): 0.267 | relative viability ([4]; first compound 4 µM): 0.285 | relative viability ([5]; first compound 0.04 µM): 0.358 | relative viability ([5]; first compound 0.1265 µM): 0.341 | relative viability ([5]; first compound 0.4 µM): 0.367 | relative viability ([5]; first compound 1.265 µM): 0.348 | relative viability ([5]; first compound 4 µM): 0.346 | relative viability ([6]; first compound 0.04 µM): 0.543 | relative viability ([6]; first compound 0.1265 µM): 0.572 | relative viability ([6]; first compound 0.4 µM): 0.533 | relative viability ([6]; first compound 1.265 µM): 0.392 | relative viability ([6]; first compound 4 µM): 0.253 | relative viability ([7]; first compound 0.04 µM): 0.332 | relative viability ([7]; first compound 0.1265 µM): 0.342 | relative viability ([7]; first compound 0.4 µM): 0.311 | relative viability ([7]; first compound 1.265 µM): 0.308 | relative viability ([7]; first compound 4 µM): 0.302 | relative viability ([8]; first compound 0.04 µM): 0.7 | relative viability ([8]; first compound 0.1265 µM): 0.64 | relative viability ([8]; first compound 0.4 µM): 0.683 | relative viability ([8]; first compound 1.265 µM): 0.604 | relative viability ([8]; first compound 4 µM): 0.601 | relative viability ([9]; first compound 0.04 µM): 0.656 | relative viability ([9]; first compound 0.1265 µM): 0.799 | relative viability ([9]; first compound 0.4 µM): 0.685 | relative viability ([9]; first compound 1.265 µM): 0.622 | relative viability ([9]; first compound 4 µM): 0.395 | relative viability ([10]; first compound 0.04 µM): 0.487 | relative viability ([10]; first compound 0.1265 µM): 0.493 | relative viability ([10]; first compound 0.4 µM): 0.431 | relative viability ([10]; first compound 1.265 µM): 0.455 | relative viability ([10]; first compound 4 µM): 0.316 | relative viability ([11]; first compound 0.04 µM): 0.701 | relative viability ([11]; first compound 0.1265 µM): 0.721 | relative viability ([11]; first compound 0.4 µM): 0.664 | relative viability ([11]; first compound 1.265 µM): 0.421 | relative viability ([11]; first compound 4 µM): 0.416 | relative viability ([12]; first compound 0.04 µM): 0.505 | relative viability ([12]; first compound 0.1265 µM): 0.558 | relative viability ([12]; first compound 0.4 µM): 0.411 | relative viability ([12]; first compound 1.265 µM): 0.368
